For 15 compounds, IC50 results are on record in patent US20250179103A1, “6-OXODECAHYDROPYRROLO[1,2-A][1,5]DIAZOCINE AND 6-OXODECAHYDRO-4H-PYRROLO[2,1-D][1,5]THIAZOCINE DERIVATIVES AS STAT3 AND STAT6 MODULATORS FOR THE TREATMENT OF CANCER AND INFLAMMATORY CONDITIONS” (Recludix Pharma, Inc., priority 2022, published 2025).

The target of test [1] is T1, Recombinant STAT6 protein (STAT6(W123-T658)) (Homo sapiens, UniProt P42226).
T1 construct: Recombinant STAT6 protein (STAT6(W123-T658))
T1 sequence (P42226 123-658): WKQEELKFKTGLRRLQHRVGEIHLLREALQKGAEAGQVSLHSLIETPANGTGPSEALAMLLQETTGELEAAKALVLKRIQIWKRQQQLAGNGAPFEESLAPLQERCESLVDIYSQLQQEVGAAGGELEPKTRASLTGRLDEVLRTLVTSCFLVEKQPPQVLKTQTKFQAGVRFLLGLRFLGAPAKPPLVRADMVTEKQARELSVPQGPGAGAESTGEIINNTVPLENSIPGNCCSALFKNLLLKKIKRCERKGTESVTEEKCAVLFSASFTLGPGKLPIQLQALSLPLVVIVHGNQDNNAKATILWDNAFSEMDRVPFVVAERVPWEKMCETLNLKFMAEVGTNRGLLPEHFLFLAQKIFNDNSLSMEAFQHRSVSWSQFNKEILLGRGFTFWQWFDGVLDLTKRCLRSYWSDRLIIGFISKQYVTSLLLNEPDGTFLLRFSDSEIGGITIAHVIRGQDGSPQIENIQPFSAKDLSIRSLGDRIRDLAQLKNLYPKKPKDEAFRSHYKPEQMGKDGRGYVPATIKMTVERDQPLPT
Nature of the test: STAT6 Fluorescence Polarization (FP) Assay. Format: binding. Particulars: STAT6(W123-T658) 250 nM, probe 5-FAM-ApYKPFQDLI-NH2 2 nM, 45-minute incubation. An outline of the steps: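 Displacement of a fluorescent phosphotyrosine peptide (5-FAM-ApYKPFQDLI-NH2, 2 nM) from STAT6(W123-T658) (250 nM), 1% DMSO, pH 7.4 HEPES buffer. After 45 min at room temperature, polarization (mP) was plotted versus log compound concentration and fitted by nonlinear regression to give IC50.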

Test [2] has as its target T2, Recombinant STAT3 protein (STAT3(G127-I722)) (Homo sapiens, UniProt P40763).
T2 construct: Recombinant STAT3 protein (STAT3(G127-I722))
Nature of the test: STAT3 Fluorescence Polarization (FP) Assay. Format: binding. Particulars: STAT3(G127-I722) 25 nM, probe 5-FAM-GpYLPQTV-NH2 2 nM, 45-minute incubation. In a few lines: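 Fluorescence polarization after a 45-min room-temperature incubation measured compound displacement of a 2 nM fluorescein-labelled phosphotyrosine peptide (5-FAM-GpYLPQTV-NH2) from 25 nM recombinant STAT3(G127-I722). Buffer was 10 mM HEPES pH 7.4 with 1% DMSO final. IC50s were fitted by nonlinear regression of mP against log concentration.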

The structures appear in SMILES notation.

T2 sequence (P40763 127-722): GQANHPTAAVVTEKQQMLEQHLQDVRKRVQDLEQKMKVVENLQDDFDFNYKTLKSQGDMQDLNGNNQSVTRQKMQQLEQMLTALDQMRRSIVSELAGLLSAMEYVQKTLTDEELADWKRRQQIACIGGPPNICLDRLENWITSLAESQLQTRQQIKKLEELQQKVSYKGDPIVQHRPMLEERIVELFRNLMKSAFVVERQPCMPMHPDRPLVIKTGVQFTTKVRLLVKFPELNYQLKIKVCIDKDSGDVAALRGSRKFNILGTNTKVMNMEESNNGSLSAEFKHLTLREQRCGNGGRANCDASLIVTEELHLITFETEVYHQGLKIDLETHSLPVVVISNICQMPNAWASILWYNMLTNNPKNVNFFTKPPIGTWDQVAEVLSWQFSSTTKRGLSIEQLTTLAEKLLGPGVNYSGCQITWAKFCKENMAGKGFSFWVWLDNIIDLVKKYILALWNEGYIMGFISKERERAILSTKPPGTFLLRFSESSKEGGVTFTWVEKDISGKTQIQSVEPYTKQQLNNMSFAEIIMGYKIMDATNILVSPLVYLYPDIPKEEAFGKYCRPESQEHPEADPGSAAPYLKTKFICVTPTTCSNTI

The term IC50 denotes the concentration needed to halve the response being measured. For `Cc1ccc2onc(C(=O)N3CC[C@H]4CC[C@@H](C(=O)N5CCOC(Cc6ccccc6)C5)N4C(=O)[C@@H](NC(=O)c4ccc5ccc(C(F)P(=O)(O)O)cc5c4)C3)c2c1` (stereo partly drawn) [Compound 373, ((7-(((5S,8S,10aR)-8-(2-benzylmorpholine-4-carbonyl)-3-(5-methylbenzo[d]isoxazole-3-carbonyl)-6-oxodecahydropyrrolo [1,2-a][1,5]diazocin-5-yl)carbamoyl)naphthalen-2-yl)fluoromethyl) phosphonic acid], the IC50 is at most 300 nM in test [1] and over 10000 nM in test [2].
The like results for `CC(=O)N1CC[C@H]2CC[C@@H](C(=O)N3CC(C(=O)N4CCOCC4)C3)N2C(=O)[C@@H](NC(=O)c2cc3cc(C(F)(F)P(=O)(O)O)ccc3s2)C1` [Compound 77, ((2-(((5S,8S,10aR)-3-acetyl-8-(3-(morpholine-4-carbonyl)azetidine-1-carbonyl)-6-oxodecahydropyrrolo[1,2-a][1,5]diazocin-5-yl)carbamoyl)benzo[b]thiophen-5-yl)difluoromethyl)phosphonic acid] were, in that order, 3000 to 30000 nM and 100 to 1000 nM.
As for `CC(=O)N1CC[C@H]2CC[C@@H](C(=O)N3C[C@@H](C#N)[C@](C)(c4ccccc4)C3)N2C(=O)[C@@H](NC(=O)c2cc3cc(C(F)(F)P(=O)(O)O)ccc3s2)C1` (relative stereo) [Compound 152, ((2-(((5S,8S,10aR)-3-acetyl-8-((rel-trans)-4-cyano-3-methyl-3-phenylpyrrolidine-1-carbonyl)-6-oxodecahydropyrrolo[1,2-a][1,5]diazocin-5-yl)carbamoyl)benzo[b]thiophen-5-yl)difluoromethyl)phosphonic acid], the IC50 in test [1] is at most 300 nM; in test [2], 1000 to 10000 nM.
As to `O=C(N[C@H]1CN(C(=O)c2ncn3ccccc23)CC[C@H]2CC[C@@H](C(=O)N3CCOCC3)N2C1=O)c1ccc2ccc(C(F)P(=O)(O)O)cc2c1` (stereo partly drawn) [Compound 357, (fluoro(7-(((5S,8S,10aR)-3-(imidazo[1,5-a]pyridine-1-carbonyl)-8-(morpholine-4-carbonyl)-6-oxodecahydro-pyrrolo[1,2-a][1,5]diazocin-5-yl)carbamoyl)naphthalen-2-yl)methyl)phosphonic acid], the IC50 in test [1] was 300 to 3000 nM; in test [2] it was over 10000 nM.
Take `COC(=O)N1CC[C@H]2CC[C@@H](C(=O)N3C[C@H](c4ccccc4)[C@@H](C#N)C3)N2C(=O)[C@@H](NC(=O)c2cc3cc(C(F)(F)P(=O)(O)O)ccc3s2)C1` (relative stereo) [Compound 250, ((2-(((5S,8S,10aR)-8-((rel-trans)-3-cyano-4-phenylpyrrolidine-1-carbonyl)-3-(methoxycarbonyl)-6-oxodecahydropyrrolo[1,2-a][1,5]diazocin-5-yl)carbamoyl)benzo[b]thiophen-5-yl)difluoromethyl)phosphonic acid]: the IC50 is at most 300 nM in test [1] and 100 to 1000 nM in test [2].
Taken in the same sequence, the figures for `O=C(N[C@H]1CN(CC(F)F)CC[C@H]2CC[C@@H](C(=O)N3C[C@H](c4ccccc4)[C@@H](C(F)F)C3)N2C1=O)c1cc2cc(C(F)(F)P(=O)(O)O)ccc2s1` (relative stereo) [Compound 242, ((2-(((5S,8S,10aR)-3-(2,2-difluoroethyl)-8-((rel-trans)-3-(difluoromethyl)-4-phenylpyrrolidine-1-carbonyl)-6-oxodecahydropyrrolo[1,2-a][1,5]diazocin-5-yl)carbamoyl)benzo[b]thiophen-5-yl)difluoromethyl)phosphonic acid] were at most 300 nM and 100 to 1000 nM.
With `CC(=O)N1CC[C@H]2CC[C@@H](C(=O)N3CCCc4ccccc43)N2C(=O)[C@@H](NC(=O)c2cc3cc(C(F)(F)P(=O)(O)O)ccc3[nH]2)C1` [Compound 57, ((2-(((5S,8S,10aR)-3-acetyl-6-oxo-8-(1,2,3,4-tetrahydroquinoline-1-carbonyl)decahydropyrrolo[1,2-a][1,5]diazocin-5-yl)carbamoyl)-1H-indol-5-yl)difluoromethyl)phosphonic acid], the results for the half-inhibitory concentration (IC50) in test [1] and in test [2] were 300 to 3000 nM and 1000 to 10000 nM, respectively.
The like results for `CN(C(=O)[C@@H]1CC[C@@H]2CCN(C(=O)Cc3ccccc3)C[C@H](NC(=O)c3cc4cc(C(F)(F)P(=O)(O)O)ccc4[nH]3)C(=O)N21)c1ccccc1` [Compound 3, (difluoro(2-(((5S,8S,10aR)-8-(methyl(phenyl)carbamoyl)-6-oxo-3-(2-phenylacetyl)decahydropyrrolo[1,2-a][1,5]diazocin-5-yl)carbamoyl)-1H-indol-5-yl)methyl)phosphonic acid] were, in that order, 300 to 3000 nM and 1000 to 10000 nM.
`CC(=O)N1CC[C@H]2CC[C@@H](C(=O)N(C)c3ccc(OCCN(C)C)cc3)N2C(=O)[C@@H](NC(=O)c2cc3cc(C(F)(F)P(=O)(O)O)ccc3[nH]2)C1` [Compound 102, ((2-(((5S,8S,10aR)-3-acetyl-8-((4-(2-(dimethylamino)ethoxy)phenyl)(methyl)carbamoyl)-6-oxodecahydropyrrolo[1,2-a][1,5]diazocin-5-yl)carbamoyl)-1H-indol-5-yl)difluoromethyl)phosphonic acid]: the values for the 50% inhibitory concentration (IC50) in test [1] and in test [2] were 300 to 3000 nM and 1000 to 10000 nM, respectively.
The like results for `O=C(N[C@H]1CS(=O)(=O)CC[C@H]2CC[C@@H](C(=O)N3CC(c4cccnc4)C3)N2C1=O)c1cc2cc(C(F)(F)P(=O)(O)O)ccc2s1` [Compound 404, ((2-(((5R,8S,10aR)-3,3-dioxido-6-oxo-8-(3-(pyridin-3-yl)azetidine-1-carbonyl)octahydro-4H-pyrrolo[2,1-d][1,5]thiazocin-5-yl)carbamoyl)benzo[b]thiophen-5-yl)difluoromethyl) phosphonic acid] were, in that order, 3000 to 30000 nM and at most 100 nM.
Taken in the same sequence, the figures for `Cc1ccc2onc(C(=O)N3CC[C@H]4CC[C@@H](C(=O)N5C[C@@H](c6ccn(C)c(=O)c6)CC56CC6)N4C(=O)[C@@H](NC(=O)c4ccc5ccc([C@H](F)P(=O)(O)O)cc5c4)C3)c2c1` [Compound 387, ((R)-fluoro(7-(((5S, 8S,10aR)-8-((R)-6-(1-methyl-2-oxo-1,2-dihydropyridin-4-yl)-4-azaspiro[2.4]heptane-4-carbonyl)-3-(5-methylbenzo[d]isoxazole-3-carbonyl)-6-oxodecahydro-pyrrolo[1,2-a][1,5]diazocin-5-yl)carbamoyl)naphthalen-2-yl)methyl) phosphonic acid] were at most 300 nM and over 10000 nM.
Take `CC(=O)N1CC[C@H]2CC[C@@H](C(=O)N(C)c3ccc4nnccc4c3)N2C(=O)[C@@H](NC(=O)c2cc3cc(C(F)(F)P(=O)(O)O)ccc3s2)C1` [Compound 191, ((2-(((5S,8S,10aR)-3-acetyl-8-(cinnolin-6-yl(methyl)carbamoyl)-6-oxodecahydropyrrolo[1,2-a][1,5]diazocin-5-yl)carbamoyl)benzo[b]thiophen-5-yl)difluoromethyl)phosphonic acid]: the figures for the IC50 in test [1] and in test [2] were at most 300 nM and 100 to 1000 nM, respectively.
As for `CC(=O)N1CC[C@H]2CC[C@@H](C(=O)Nc3ccc(OCCN(C)C)cc3)N2C(=O)[C@@H](NC(=O)c2cc3cc(C(F)(F)P(=O)(O)O)ccc3s2)C1` [Compound 75, ((2-(((5S,8S,10aR)-3-acetyl-8-((4-(2-(dimethylamino)ethoxy)phenyl)carbamoyl)-6-oxodecahydropyrrolo[1,2-a][1,5]diazocin-5-yl)carbamoyl)benzo[b]thiophen-5-yl)difluoromethyl)phosphonic acid], the values for the IC50 in test [1] and in test [2] were 3000 to 30000 nM and 1000 to 10000 nM, respectively.
Taken in the same sequence, the figures for `CC(=O)N1CC[C@H]2CC[C@@H](C(=O)N(C)c3ccc(C(C)(C)C)cc3)N2C(=O)[C@@H](NC(=O)c2cc3cc(C(F)(F)P(=O)(O)O)ccc3[nH]2)C1` [Compound 136, ((2-(((5S,8S,10aR)-3-acetyl-8-((4-(tert-butyl)phenyl)(methyl)carbamoyl)-6-oxodecahydropyrrolo[1,2-a][1,5]diazocin-5-yl)carbamoyl)-1H-indol-5-yl)difluoromethyl)phosphonic acid] were at most 300 nM and 1000 to 10000 nM.
Taken in the same sequence, the figures for `CC(=O)N1CC[C@H]2CC[C@@H](C(=O)Nc3ccc(-c4ccccc4)[nH]c3=O)N2C(=O)[C@@H](NC(=O)c2cc3cc(C(F)(F)P(=O)(O)O)ccc3[nH]2)C1` [Compound 180, ((2-(((5S,8S,10aR)-3-acetyl-6-oxo-8-((2-oxo-6-phenyl-1,2-dihydropyridin-3-yl)carbamoyl)decahydropyrrolo[1,2-a][1,5]diazocin-5-yl)carbamoyl)-1H-indol-5-yl)difluoromethyl)phosphonic acid] were 300 to 3000 nM and 100 to 1000 nM.
